According to publication PMC10604720, “Unraveling the Mechanism of Epichaperome Modulation by Zelavespib: Biochemical Insights on Target Occupancy and Extended Residence Time at the Site of Action” (Biomedicines, 2023):

Assay: Biodistribution / PET pharmacokinetics of [124I]-zelavespib in MDA-MB-468 tumor-bearing mice (data of ref 32, refitted to exponential decay)
Type: in vivo, mouse
Experimental: Iodine-124 is a ‘non-residualizing’ isotope (i.e., free iodine-124 washes out from cells), and therefore, data derived from positron emission tomography imaging of MDA-MB-468-bearing mice that were administered a tracer amount of [^124I]-PU-AD can be used to determine real-time zelavespib concentrations delivered to tumors. Because positron emission tomography provides information on radioactivity and not molar concentrations, radioactivity data from Pillarsetty et al. were transformed into tumor concentrations to calculate the time-dependent zelavespib concentrations in tumors for an administered dose of 50 mg/kg. The drug concentration (in μM) in the tumor water space, [Drugtumor], at the time t post-administration is therefore: [Drugtumor]t=Drugdose·[Atumor]t/100%·1/W·1×10^6/MW µM where Drugdose is the administered drug dose (in mg), [Atumor]t is the activity concentration (in % injected dose per milliliter, %ID/mL) of the surrogate radiotracer, W is the water space of the tissue (in mL/g), MW is the molecular weight of the drug (i.e., zelavespib), and the factor 1 × 10^6 converts the concentration to μM. For the drug zelavespib and the surrogate radiotracer […] co-injected in a ratio of ~1 to 10,000, the drug itself is essentially the only significant form of the drug–surrogate combination in the tumor. Thus, for a co-administered dose of zelavespib (zelavespibdose in mg) and a tracer amount of [^124I]-PU-AD, the drug concentration in the tumor water space (using an average water space, W = 0.8 mL/g, and the molecular weight MW = 512) is: [Zelavespibtumor]t=Zelavespibdose · [Atumor]t/100%·2.44×10^3 µM
To study the zelavespib–epichaperome interaction in vivo, we selected, for simplicity, an epichaperome-positive tumor model (e.g., subcutaneously xenografted MDA-MB-468 tumors in mice). Using whole-body PET imaging after the injection of ^124I-labeled zelavespib, Pillarsetty et al. reported drug presence in MDA-MB-468 tumors up to 120 h post-single dose administration (~T1/2 = 60 h). Conversely, zelavespib was no longer observed in non-disease, non-metabolizing tissues after ~8 h, clearing rapidly from plasma, paralleled by a similar rapid clearance from normal tissues (i.e., chaperone-positive but epichaperome-negative). In these tumors, a clear relationship between tumor retention, pharmacodynamic effects, and anti-tumor activity was observed, supporting the notion that zelavespib was in residence with its target over the time it resided in these tumors.
These values are very much in agreement with those reported for zelavespib in human patients. […] Contrasting plasma and normal tissues and organs, the distribution of zelavespib in tumors was best fitted using a bi-exponential model. […] The first phase thus reflects the clearance of systemic agent, while the second is attributable to specific tumor retention.
Figure 1 Biodistribution of zelavespib in MDA-MB-468 tumor-bearing mice. (a) Biodistribution of [^124I]-Zelavespib in MDA-MB-468 tumors, organs, tissues, and plasma as per ref. [32]. Data are presented as means ± s.d., five mice per time point. Curves for blood, lung, heart, muscle, bone, and brain were fitted using a one-phase decay equation, and kinetics of zelavespib clearance were determined. Tumor curve was fitted to a two-phase exponential decay. k, kfast, and kslow are the rate constants. Half-life (T1/2) is computed as ln(2)/k. […] (b) Illustrative schematic showing the distinct binding kinetics of zelavespib to epichaperomes (slow off-rate) and to chaperone assemblies (fast off-rate). The tumor pharmacokinetics profile recorded in the Phase 2 interval may represent a direct reflection of the in vivo kinetics of target–drug unbinding. koff, kinetic rate constant for dissociation of an epichaperome-zelavespib assembly. Rt, retention time. […]

[1] = MDA-MB-468 tumor-bearing mice, one-phase exponential decay fit of data of ref 32
[2] = MDA-MB-468 tumor, bi-exponential fit, Phase 1: 0 to 8 h, data of ref 32
[3] = MDA-MB-468 tumor, bi-exponential fit, slow terminal clearance phase, data of ref 32

SMILES: CC(C)NCCCn1c(Sc2cc3c(cc2I)OCO3)nc2c(N)ncnc21 [zelavespib]
- half-life (T1/2), bone [1]: 2.84 h
- half-life (T1/2), brain [1]: 2.65 h
- half-life (T1/2), heart [1]: 3.10 h
- half-life (T1/2), lung [1]: 3.37 h
- half-life (T1/2), muscle [1]: 5.03 h
- half-life (T1/2), plasma/blood [1]: 4.38 h
- tumor Phase 1 T1/2 [2]: 2.87 h
- tumor Phase 1 rate constant k (kfast) [2]: 0.241 h⁻¹
- tumor Phase 2 T1/2 [3]: 46.8 h
- tumor Phase 2 rate constant k (kslow) [3]: 0.015 h⁻¹
